Experimental findings from PubChem BioAssay (NCI) are described below.

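Compound exposure: 48 hours, 5 concentrations, 96-well plates. The concentration for 50% growth inhibition is given as GI50. TGI: concentration producing complete growth inhibition.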

Test systems include HS 578T breast; SK-MEL-5 melanoma; M14 melanoma; SN12C renal; 786-0 renal; HCT-116 colon; KM12 colon; SW-620 colon; RXF 393 renal; UO-31 renal.
Common to all, as to experiment: NCI-60 cell line screen, 48 h

On to `COc1cc(NC(=O)COc2ccccc2)c(C(N)=O)cc1OC`, for which the GI50 in the assay on HS 578T breast was 0.771 µM; in the assay with SK-MEL-5 melanoma, 0.766 µM; with M14 melanoma it was 0.614 µM; in the assay with SN12C renal it was 3.12 µM; with 786-0 renal, 7.32 µM; with HCT-116 colon, 0.62 µM. For the same compound, the GI50 in the assay on KM12 colon is 0.442 µM; in the assay with SW-620 colon it was 0.646 µM; with RXF 393 renal, 1.69 µM; in the assay with UO-31 renal it was 13.5 µM. Moreover, the TGI is 26.9 µM with HS 578T breast; > 100 µM with SK-MEL-5 melanoma; > 100 µM in the assay with M14 melanoma; > 100 µM in the assay on SN12C renal; 38.8 µM in the assay on 786-0 renal; > 100 µM in the assay with HCT-116 colon. The TGI in the assay with KM12 colon is > 100 µM; with SW-620 colon, > 100 µM; in the assay on RXF 393 renal it was 9.52 µM; in the assay with UO-31 renal, > 100 µM.

Turning to `CN1CCN(C(=O)/C=C/c2ccc([N+](=O)[O-])o2)CC1`, the GI50 in the assay on HS 578T breast is 46.5 µM; in the assay on SK-MEL-5 melanoma, 7.52 µM; in the assay on M14 melanoma it was 3.11 µM; with SN12C renal, 13.8 µM; in the assay on 786-0 renal, 18.6 µM; with HCT-116 colon it was 10.5 µM. For the same compound, the GI50 with KM12 colon is 24 µM; in the assay with SW-620 colon it was 15.8 µM; with RXF 393 renal, 2.88 µM; in the assay on UO-31 renal, 13.4 µM. Moreover, the TGI with HS 578T breast was > 100 µM; with SK-MEL-5 melanoma, 20.4 µM; in the assay on M14 melanoma, 11.7 µM; in the assay with SN12C renal, 27.9 µM; in the assay with 786-0 renal, 36.7 µM; in the assay with HCT-116 colon it was 22.4 µM. The TGI in the assay with KM12 colon is > 100 µM; with SW-620 colon it was 37.1 µM; in the assay on RXF 393 renal, 12.4 µM; with UO-31 renal it was 30.1 µM.

Regarding `CC1(C)CC2=NO[Se]3=C2C(=NO3)C1`, the TGI was 33.1 µM with HS 578T breast; 3.28 µM in the assay on SK-MEL-5 melanoma; 6.25 µM in the assay on M14 melanoma; 13 µM with SN12C renal; 12.4 µM in the assay with 786-0 renal; 10.4 µM with HCT-116 colon. For the same compound, the TGI stood at 13.8 µM in the assay on KM12 colon, 12.3 µM in the assay with SW-620 colon, 9.18 µM with RXF 393 renal and 8.73 µM in the assay on UO-31 renal.

Take `COc1cc2c(cc1OCCN1CCN(CCN3C(=O)c4cccc5cccc(c45)C3=O)CC1)N=C[C@@H]1CCCN1C2=O`: the GI50 in the assay on HS 578T breast was 24.9 µM; in the assay with SK-MEL-5 melanoma, 16 µM; in the assay on M14 melanoma it was 14.5 µM; in the assay on SN12C renal, 23.2 µM; with 786-0 renal, 18.2 µM; in the assay with KM12 colon, 18.2 µM. Further, the figures for the GI50 in the assay on SW-620 colon, in the assay on RXF 393 renal and in the assay with UO-31 renal were 19.6 µM, 14.2 µM and 18.5 µM, respectively. Also, the TGI stood at 54.4 µM with HS 578T breast; 29.5 µM with SK-MEL-5 melanoma; 28.7 µM in the assay with M14 melanoma; 58.6 µM in the assay on SN12C renal; 33.4 µM in the assay on 786-0 renal; 39 µM with KM12 colon. The TGI with SW-620 colon came to 40 µM; with RXF 393 renal it was 32.2 µM; with UO-31 renal, 32.5 µM.

With `CN(C)CCCC1(c2ccc(F)cc2)OCc2cc(-c3csc4ccccc34)ccc21` (centres undefined), the GI50 is 1.74 µM in the assay with HS 578T breast; 1.77 µM in the assay on SK-MEL-5 melanoma; 1.66 µM with M14 melanoma; 1.63 µM with SN12C renal; 1.84 µM in the assay on 786-0 renal; 1.71 µM in the assay on KM12 colon. For the same compound, the results for the GI50 with SW-620 colon, in the assay on RXF 393 renal and with UO-31 renal were 1.63 µM, 1.54 µM and 1.25 µM, respectively. The TGI in the assay with HS 578T breast is 3.76 µM; with SK-MEL-5 melanoma, 3.17 µM; in the assay on M14 melanoma, 3.36 µM; in the assay on SN12C renal, 3.13 µM; in the assay on 786-0 renal, 3.63 µM; in the assay with KM12 colon, 3.16 µM. Further, the TGI worked out at 3.22 µM in the assay with SW-620 colon, 2.95 µM with RXF 393 renal and 2.62 µM in the assay with UO-31 renal.

As to `O=C(CCN1CCOCC1)Nc1ccc(Cn2nnc3c2C(=O)c2nnn(Cc4ccc(NC(=O)CCN5CCOCC5)cc4)c2C3=O)cc1`, the GI50 in the assay on HS 578T breast is 3.03 µM; with SK-MEL-5 melanoma it was 0.59 µM; in the assay on M14 melanoma it was 6.74 µM; in the assay with SN12C renal, 0.52 µM; in the assay on 786-0 renal, > 100 µM; in the assay with HCT-116 colon it was 0.384 µM. In addition, the values for the GI50 in the assay on SW-620 colon, in the assay with RXF 393 renal and in the assay with UO-31 renal were 2.58 µM, > 100 µM and > 100 µM, respectively. Also, the TGI in the assay on HS 578T breast was 24.9 µM; with SK-MEL-5 melanoma, 1.71 µM; in the assay with M14 melanoma, > 23.1 µM; with SN12C renal it was 2 µM; in the assay with 786-0 renal, > 100 µM; in the assay with HCT-116 colon, > 100 µM. Besides, the TGI in the assay on SW-620 colon, in the assay on RXF 393 renal and in the assay on UO-31 renal was > 100 µM throughout.

Consider `O=[N+]([O-])c1ccc(/C=C(/c2ccc([N+](=O)[O-])o2)S(=O)(=O)c2ccccc2)cc1`, for which the TGI in the assay on HS 578T breast is > 100 µM; with SK-MEL-5 melanoma, 34.3 µM; in the assay on M14 melanoma, > 100 µM; in the assay with 786-0 renal it was > 100 µM; with HCT-116 colon it was > 100 µM; with KM12 colon, > 100 µM. Further, the TGI with SW-620 colon, in the assay with RXF 393 renal and in the assay with UO-31 renal was > 100 µM throughout.

Regarding `COc1ccc(-n2c(=O)c3ccccc3n(Cc3ccc(C(=O)NO)cc3)c2=O)cc1`, the GI50 was 2.67 µM with HS 578T breast; 1.73 µM in the assay on SK-MEL-5 melanoma; 1.71 µM with M14 melanoma; 2.53 µM with 786-0 renal; 1.78 µM in the assay on HCT-116 colon; 1.77 µM with KM12 colon. In addition, the GI50 was 2.13 µM in the assay with SW-620 colon, 1.49 µM in the assay with RXF 393 renal and 6.58 µM in the assay on UO-31 renal. In addition, the TGI in the assay with HS 578T breast came out at 24.2 µM; in the assay on SK-MEL-5 melanoma it was 3.45 µM; in the assay on M14 melanoma, 3.44 µM; in the assay on 786-0 renal, 7.09 µM; in the assay with HCT-116 colon, 4.16 µM; in the assay on KM12 colon it was 4.08 µM. Also, the figures for the TGI in the assay on SW-620 colon, in the assay on RXF 393 renal and in the assay with UO-31 renal were 6.97 µM, 3.34 µM and 21.5 µM, respectively.

For the compound `N#C[Se]CCN1C(=O)c2ccccc2C1=O`, the GI50 is 1.43 µM with HS 578T breast; 1.21 µM with M14 melanoma; 2.69 µM in the assay with SN12C renal; 2.1 µM in the assay with 786-0 renal; 1.06 µM in the assay on HCT-116 colon; 3.14 µM in the assay with KM12 colon. The GI50 with SW-620 colon is 2.38 µM; in the assay with RXF 393 renal, 1.37 µM; with UO-31 renal, 2.09 µM. Also, the TGI is 6.09 µM with HS 578T breast; 3.8 µM in the assay on M14 melanoma; 10.9 µM in the assay with SN12C renal; 5.09 µM in the assay on 786-0 renal; 3.23 µM with HCT-116 colon; 45.3 µM in the assay with KM12 colon. Also, the values for the TGI in the assay with SW-620 colon, in the assay with RXF 393 renal and in the assay with UO-31 renal were 5.66 µM, 2.86 µM and 7.92 µM, respectively.
